Assay results from ChEMBL document CHEMBL4020724, “Selective HDAC inhibitors with potent oral activity against leukemia and colorectal cancer: Design, structure-activity relationship and anti-tumor activity study” (Eur J Med Chem, 2017).
Active and inactive are the calls of the source. No cut-off for these calls is given here.

Legend:
[1] = test system: HEL; assay: Antiproliferative activity against HEL cells after 48 hrs by MTT assay; type: functional, cell-based; conditions: Homo sapiens
[2] = biological target: Histone deacetylase 2 (Homo sapiens, UniProt Q92769); assay: Inhibition of HDAC2 (unknown origin) using Boc-Lys (acetyl)-AMC as substrate incubated for 10 mins followed by substrate addition measured after 30 mins by fluorescence assay
Sequence of Histone deacetylase 2 (Q92769 whole entry): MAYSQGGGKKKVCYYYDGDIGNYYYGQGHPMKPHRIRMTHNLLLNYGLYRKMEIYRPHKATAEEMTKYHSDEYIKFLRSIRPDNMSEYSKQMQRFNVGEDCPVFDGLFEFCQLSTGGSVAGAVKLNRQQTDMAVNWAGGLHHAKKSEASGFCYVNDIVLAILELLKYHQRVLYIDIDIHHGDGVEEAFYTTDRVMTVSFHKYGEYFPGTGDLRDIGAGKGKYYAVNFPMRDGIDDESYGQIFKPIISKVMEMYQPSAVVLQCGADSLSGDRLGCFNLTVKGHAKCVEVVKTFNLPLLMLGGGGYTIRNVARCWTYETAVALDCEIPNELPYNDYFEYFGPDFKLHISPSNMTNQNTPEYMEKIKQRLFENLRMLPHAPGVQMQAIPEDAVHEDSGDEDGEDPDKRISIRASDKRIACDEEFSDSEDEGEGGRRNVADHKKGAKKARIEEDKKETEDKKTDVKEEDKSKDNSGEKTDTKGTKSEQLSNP

[3] = biological target: Histone deacetylase 3 (Homo sapiens, UniProt O15379); assay: Inhibition of HDAC3 (unknown origin) using Boc-Lys (acetyl)-AMC as substrate incubated for 10 mins followed by substrate addition measured after 30 mins by fluorescence assay
Sequence of Histone deacetylase 3 (O15379 whole entry): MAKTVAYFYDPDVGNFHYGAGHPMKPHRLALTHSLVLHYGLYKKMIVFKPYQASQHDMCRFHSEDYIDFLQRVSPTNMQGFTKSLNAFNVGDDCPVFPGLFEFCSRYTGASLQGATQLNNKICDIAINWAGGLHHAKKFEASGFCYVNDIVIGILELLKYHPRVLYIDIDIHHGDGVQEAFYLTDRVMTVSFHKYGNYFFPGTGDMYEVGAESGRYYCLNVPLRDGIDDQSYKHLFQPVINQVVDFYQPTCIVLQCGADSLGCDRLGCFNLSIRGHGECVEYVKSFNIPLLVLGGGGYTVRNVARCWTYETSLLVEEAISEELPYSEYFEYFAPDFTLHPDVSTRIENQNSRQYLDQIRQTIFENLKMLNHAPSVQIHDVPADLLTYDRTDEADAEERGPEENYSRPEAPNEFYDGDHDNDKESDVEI

[4] = biological target: Histone deacetylase 1 (Homo sapiens, UniProt Q13547); assay: Inhibition of HDAC1 (unknown origin) using Boc-Lys (acetyl)-AMC as substrate incubated for 10 mins followed by substrate addition measured after 30 mins by fluorescence assay
Sequence of Histone deacetylase 1 (Q13547 whole entry): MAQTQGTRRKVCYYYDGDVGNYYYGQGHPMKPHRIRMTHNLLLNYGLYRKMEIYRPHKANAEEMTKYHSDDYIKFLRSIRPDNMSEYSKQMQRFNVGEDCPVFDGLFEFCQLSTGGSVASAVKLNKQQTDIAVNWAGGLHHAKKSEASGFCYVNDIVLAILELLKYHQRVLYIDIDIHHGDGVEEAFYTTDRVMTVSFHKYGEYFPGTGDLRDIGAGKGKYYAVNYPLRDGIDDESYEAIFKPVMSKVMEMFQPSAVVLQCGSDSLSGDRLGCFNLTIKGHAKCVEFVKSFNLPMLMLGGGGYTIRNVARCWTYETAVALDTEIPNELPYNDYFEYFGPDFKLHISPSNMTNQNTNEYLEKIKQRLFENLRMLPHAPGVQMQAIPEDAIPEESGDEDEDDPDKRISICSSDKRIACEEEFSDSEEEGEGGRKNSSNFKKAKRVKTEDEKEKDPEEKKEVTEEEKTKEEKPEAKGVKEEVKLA

[5] = test system: HCT-116; assay: cells; conditions: Homo sapiens, HCT-116, 48 h
[6] = test system: U-266; assay: Antiproliferative activity against human U266 cells after 48 hrs by MTT assay; type: functional, cell-based; conditions: U-266, 48 h
[7] = test system: U-937; assay: cells; conditions: Homo sapiens, U-937, 48 h
Description: Antiproliferative activity against human U937 cells after 48 hrs by MTT assay

[8] = test system: K562; assay: cells; conditions: Homo sapiens, K562, 48 h
[9] = test system: HL-60; assay: Induction of apoptosis in human HL60 cells assessed as increase in cleaved PARP level at 1 to 5 uM after 48 hrs by Western blot analysis; type: functional, cell-based
[10] = biological target: T1, Histone deacetylase (HDAC1 and HDAC2) (Homo sapiens) (UniProt Q13547+Q92769); assay: Inhibition of HDAC1/2 in human HL60 cells assessed as increase in acetylated histone H4 level at 1 to 5 uM after 48 hrs by Western blot analysis; type: cell-based
T1 sequence (Q13547 whole entry, looked up): as the sequence (Q13547 whole entry) above
T1 sequence (Q92769 whole entry, looked up): as the sequence (Q92769 whole entry) above

[11] = test system: HL-60; assay: Induction of apoptosis in human HL60 cells assessed as increase in cleaved caspase-3 level at 1 to 5 uM after 48 hrs by Western blot analysis; type: functional, cell-based
[12] = biological target: T1, Histone deacetylase (HDAC1 and HDAC2) (Homo sapiens); assay: Inhibition of HDAC1/2 in human HL60 cells assessed as increase in acetylated histone H3 level at 1 to 5 uM after 48 hrs by Western blot analysis; type: cell-based
[13] = test system: HL-60; assay: Induction of apoptosis in human HL60 cells assessed as decrease in procaspase-3 level at 1 to 5 uM after 48 hrs by Western blot analysis; type: functional, cell-based
[14] = cells; conditions: Homo sapiens, ES-2, 48 h
Description: Antiproliferative activity against human ES2 cells after 48 hrs by MTT assay

[15] = Inhibition of class 1 HDAC in human HL60 cells using Boc-Ac-Lys-AMC as substrate incubated for 3 hrs followed by substrate addition measured after 3 hrs by fluorescence assay; type: cell-based; conditions: HL-60, 3 h
[16] = test system: HL-60; assay: cells; conditions: Homo sapiens, HL-60, 48 h
Description: Antiproliferative activity against human HL60 cells after 48 hrs by MTT assay

[17] = test system: HCT-116; assay: Antitumor activity against human HCT116 cells xenografted in BALB/c nude mouse assessed as tumor growth inhibition at 100 mg/kg/day administered via oral gavage for 16 days measured every 3 days; type: functional; conditions: HCT-116, po, read-out: TGI
[18] = test system: HCT-116; assay: Antitumor activity against human HCT116 cells xenografted in BALB/c nude mouse assessed as relative tumor increment ratio at 100 mg/kg/day administered via oral gavage for 16 days measured every 3 days; type: functional
[19] = test system: Mus musculus; assay: Toxicity in BALB/c nude mouse xenografted with human U937 cells assessed as body weight at 100 mg/kg/day administered via oral gavage for 13 days (reference value: 25.39 +/- 1.18 g); type: organism-based; conditions: in vivo, 312 h
[20] = test system: Mus musculus; assay: Toxicity in BALB/c nude mouse xenografted with human HCT116 cells assessed as body weight at 100 mg/kg/day administered via oral gavage for 16 days (reference value: 19.91 +/- 1.26 g); type: organism-based; conditions: in vivo, 384 h
[21] = test system: U-937; assay: Antitumor activity against human U937 cells xenografted in BALB/c nude mouse assessed as tumor growth inhibition at 100 mg/kg/day administered via oral gavage for 13 days measured every 3 days; type: functional; conditions: U-937, po, read-out: TGI
[22] = biological target: T2, Protein deacetylase HDAC6 (Homo sapiens, UniProt Q9UBN7); assay: Inhibition of HDAC6 (unknown origin) using Boc-Lys (acetyl)-AMC as substrate incubated for 10 mins followed by substrate addition measured after 30 mins by fluorescence assay
T2 sequence (Q9UBN7 whole entry): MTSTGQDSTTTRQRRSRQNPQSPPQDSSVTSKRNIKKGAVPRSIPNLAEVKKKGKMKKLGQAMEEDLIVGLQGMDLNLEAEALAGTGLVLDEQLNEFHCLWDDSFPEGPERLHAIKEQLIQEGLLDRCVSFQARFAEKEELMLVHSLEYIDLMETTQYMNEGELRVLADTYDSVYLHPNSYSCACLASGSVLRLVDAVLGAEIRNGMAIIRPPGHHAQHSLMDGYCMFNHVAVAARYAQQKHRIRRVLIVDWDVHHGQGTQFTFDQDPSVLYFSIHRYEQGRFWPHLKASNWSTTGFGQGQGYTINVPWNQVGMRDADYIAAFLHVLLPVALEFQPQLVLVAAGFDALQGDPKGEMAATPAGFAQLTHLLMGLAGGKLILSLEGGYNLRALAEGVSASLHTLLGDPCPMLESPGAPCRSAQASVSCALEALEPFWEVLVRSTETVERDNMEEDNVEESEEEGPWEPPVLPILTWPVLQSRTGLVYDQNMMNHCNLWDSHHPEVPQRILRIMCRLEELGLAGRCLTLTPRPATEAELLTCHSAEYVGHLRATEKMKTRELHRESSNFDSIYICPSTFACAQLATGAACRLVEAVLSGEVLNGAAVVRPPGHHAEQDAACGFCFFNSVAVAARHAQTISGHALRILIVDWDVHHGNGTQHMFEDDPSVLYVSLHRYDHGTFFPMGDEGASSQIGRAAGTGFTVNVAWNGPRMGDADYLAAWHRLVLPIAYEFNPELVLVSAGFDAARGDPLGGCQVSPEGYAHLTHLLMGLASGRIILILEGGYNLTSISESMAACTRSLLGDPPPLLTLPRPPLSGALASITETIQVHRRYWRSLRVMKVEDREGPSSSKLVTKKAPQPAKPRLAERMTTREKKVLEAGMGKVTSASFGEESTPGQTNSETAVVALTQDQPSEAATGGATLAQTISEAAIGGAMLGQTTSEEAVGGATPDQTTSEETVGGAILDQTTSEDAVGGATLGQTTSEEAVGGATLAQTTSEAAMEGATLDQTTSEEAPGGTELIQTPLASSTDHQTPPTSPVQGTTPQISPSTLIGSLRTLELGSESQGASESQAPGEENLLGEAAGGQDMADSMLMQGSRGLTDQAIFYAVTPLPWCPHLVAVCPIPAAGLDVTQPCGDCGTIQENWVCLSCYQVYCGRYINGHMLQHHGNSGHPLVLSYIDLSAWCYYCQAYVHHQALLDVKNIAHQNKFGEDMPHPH

[23] = biological target: Histone deacetylase 4 (Homo sapiens, UniProt P56524); assay: Inhibition of HDAC4 (unknown origin) using Boc-Lys (triflouroacetyl)-AMC as substrate incubated for 10 mins followed by substrate addition measured after 30 mins by fluorescence assay
Sequence of Histone deacetylase 4 (P56524 whole entry): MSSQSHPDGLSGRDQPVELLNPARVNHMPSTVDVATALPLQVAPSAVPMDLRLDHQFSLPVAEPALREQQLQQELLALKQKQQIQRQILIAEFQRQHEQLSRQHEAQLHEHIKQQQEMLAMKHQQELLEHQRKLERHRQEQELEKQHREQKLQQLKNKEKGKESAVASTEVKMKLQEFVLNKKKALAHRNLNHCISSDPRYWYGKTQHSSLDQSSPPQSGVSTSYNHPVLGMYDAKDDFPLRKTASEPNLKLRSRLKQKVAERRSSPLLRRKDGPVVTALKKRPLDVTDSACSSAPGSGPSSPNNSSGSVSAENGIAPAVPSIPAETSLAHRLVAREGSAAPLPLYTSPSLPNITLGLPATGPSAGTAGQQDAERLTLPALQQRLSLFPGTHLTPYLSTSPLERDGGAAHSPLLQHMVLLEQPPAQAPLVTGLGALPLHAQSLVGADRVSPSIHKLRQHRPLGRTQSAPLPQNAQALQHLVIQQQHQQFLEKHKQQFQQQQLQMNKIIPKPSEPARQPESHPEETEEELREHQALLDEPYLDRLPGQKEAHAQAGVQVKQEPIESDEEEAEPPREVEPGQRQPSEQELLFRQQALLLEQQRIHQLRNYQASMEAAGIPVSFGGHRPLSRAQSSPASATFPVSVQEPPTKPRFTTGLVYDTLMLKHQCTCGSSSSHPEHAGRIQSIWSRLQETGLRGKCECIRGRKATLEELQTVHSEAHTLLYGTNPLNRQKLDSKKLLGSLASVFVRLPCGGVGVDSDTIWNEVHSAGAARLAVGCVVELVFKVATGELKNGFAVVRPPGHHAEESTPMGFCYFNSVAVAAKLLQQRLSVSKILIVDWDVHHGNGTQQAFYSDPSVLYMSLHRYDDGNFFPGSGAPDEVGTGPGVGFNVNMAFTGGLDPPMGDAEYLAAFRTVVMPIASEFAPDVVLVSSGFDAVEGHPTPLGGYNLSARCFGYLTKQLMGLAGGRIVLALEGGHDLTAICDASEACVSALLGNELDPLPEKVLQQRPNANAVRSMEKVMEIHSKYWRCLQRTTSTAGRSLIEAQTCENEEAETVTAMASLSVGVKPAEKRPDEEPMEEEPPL

[24] = biological target: T3, Histone deacetylase 8 (Homo sapiens, UniProt Q9BY41); assay: Inhibition of HDAC8 (unknown origin) using Boc-Lys (acetyl)-AMC as substrate incubated for 10 mins followed by substrate addition measured after 30 mins by fluorescence assay
T3 sequence (Q9BY41 whole entry): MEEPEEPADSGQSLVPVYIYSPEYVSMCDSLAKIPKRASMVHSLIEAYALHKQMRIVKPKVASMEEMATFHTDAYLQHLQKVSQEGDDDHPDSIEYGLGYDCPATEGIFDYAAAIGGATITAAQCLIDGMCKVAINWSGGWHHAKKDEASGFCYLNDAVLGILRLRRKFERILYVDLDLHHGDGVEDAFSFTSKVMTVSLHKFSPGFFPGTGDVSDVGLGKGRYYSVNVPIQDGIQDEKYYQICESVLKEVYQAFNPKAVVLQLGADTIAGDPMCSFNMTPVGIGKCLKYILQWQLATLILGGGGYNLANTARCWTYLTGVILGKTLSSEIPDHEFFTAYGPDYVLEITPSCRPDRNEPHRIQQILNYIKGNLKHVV

Structure (SMILES)	IC50 [2]	IC50 [3]	IC50 [4]	IC50 [15]	IC50 [16]	other results
COc1ccc(C(=O)N[C@@H](Cc2c[nH]c3ccccc23)C(=O)NCc2ccc(C(=O)Nc3cc(-c4ccccc4)ccc3N)cc2)cc1	311 nM	30900 nM	58.4 nM	–	–	IC50 [1]: > 20 µM; IC50 [5]: > 20 µM; IC50 [6]: > 20 µM; IC50 [7]: > 20 µM; IC50 [8]: 14 µM; Activity [9]: inactive; inhibition [10]: Active; Activity [11]: inactive; inhibition [12]: Active; Activity [13]: inactive; IC50 [14]: > 20 µM
COc1ccc(C(=O)N[C@@H](Cc2c[nH]c3ccccc23)C(=O)NCc2ccc(C(=O)Nc3cc(-c4cccs4)ccc3N)cc2)cc1	320 nM	8010 nM	58.8 nM	–	–	IC50 [1]: > 20 µM; IC50 [5]: > 20 µM; IC50 [6]: > 20 µM; IC50 [7]: > 20 µM; IC50 [14]: > 20 µM
COc1ccc(C(=O)N[C@H](COc2ccc(/C=C/C(=O)Nc3ccccc3N)cc2)Cc2c[nH]c3ccccc23)cc1	217 nM	261 nM	284 nM	–	–	–
Nc1ccccc1NC(=O)c1ccc(CNC(=O)[C@H](Cc2c[nH]c3ccccc23)NC(=O)c2ccco2)cc1	–	–	–	910 nM	2400 nM	–
COc1ccc(C(=O)N[C@H](COc2ccc(CC(=O)Nc3ccccc3N)cc2)Cc2c[nH]c3ccccc23)cc1	> 20000 nM	> 20000 nM	> 20000 nM	> 10000 nM	> 20000 nM	–
CN(C)c1ccc(C(=O)N[C@@H](Cc2c[nH]c3ccccc23)C(=O)NCc2ccc(C(=O)Nc3ccccc3N)cc2)cc1	–	–	–	1510 nM	2380 nM	–
Nc1ccccc1NC(=O)c1ccc(CNC(=O)[C@H](Cc2c[nH]c3ccccc23)NC(=O)c2ccccn2)cc1	–	–	–	1610 nM	6090 nM	–
COc1ccc(C(=O)N[C@@H](Cc2c[nH]c3ccccc23)C(=O)NCc2ccc(C(=O)Nc3ccc(F)cc3N)cc2)cc1	179 nM	243 nM	171 nM	–	–	–
COc1ccc(C(=O)N[C@@H](Cc2c[nH]c3ccccc23)C(=O)NCCCCCC(=O)Nc2ccccc2N)cc1	296 nM	42.9 nM	58.6 nM	–	–	–
COc1ccc(C(=O)N[C@@H](Cc2c[nH]c3ccccc23)C(=O)NCCCCCC(=O)Nc2cc(-c3ccccc3)ccc2N)cc1	490 nM	5630 nM	55.5 nM	–	–	IC50 [5]: > 20 µM; IC50 [6]: > 20 µM; IC50 [7]: > 20 µM; IC50 [14]: > 20 µM
COc1ccc(C(=O)N[C@@H](Cc2c[nH]c3ccccc23)C(=O)NCc2ccc(C(=O)Nc3ccccc3N)cc2)cc1	157 nM	138 nM	20.6 nM	–	–	inhibition in vivo at 100 mg/kg/day [17]: 49%; T/C [18]: 59%; Activity [9]: Active; inhibition [10]: Active; Activity [19]: 25.04 g; Activity [11]: Active; Activity [20]: 21.59 g; inhibition [12]: Active; Activity [13]: Active; inhibition in vivo at 100 mg/kg/day [21]: 51%; IC50 [14]: > 20 µM
Nc1ccccc1NC(=O)c1ccc(CNC(=O)[C@H](Cc2c[nH]c3ccccc23)NC(=O)c2ccc(C(F)(F)F)cc2)cc1	–	–	–	1980 nM	3090 nM	–
COc1ccc(C(=O)N[C@@H](Cc2c[nH]c3ccccc23)C(=O)NCCCCCC(=O)Nc2ccc(F)cc2N)cc1	908 nM	110 nM	511 nM	–	–	IC50 [22]: > 100 µM; IC50 [23]: > 100 µM; IC50 [24]: > 100 µM
COc1ccc(C(=O)N[C@H](COc2ccc(C(=O)Nc3ccccc3N)cc2)Cc2c[nH]c3ccccc23)cc1	111 nM	90 nM	14.7 nM	–	–	–
COc1ccc(C(=O)N[C@@H](Cc2c[nH]c3ccccc23)C(=O)Nc2ccc(C(=O)Nc3ccc(F)cc3N)cc2)cc1	121 nM	167 nM	91.7 nM	–	–	–
COc1ccc(C(=O)N[C@@H](Cc2c[nH]c3ccccc23)C(=O)Nc2ccc(C(=O)Nc3ccccc3N)cc2)cc1	441 nM	227 nM	49.6 nM	850 nM	2140 nM	–
COc1ccc(C(=O)N[C@@H](Cc2c[nH]c3ccccc23)C(=O)NCCCCCC(=O)Nc2cc(-c3cccs3)ccc2N)cc1	337 nM	3570 nM	48 nM	–	–	IC50 [22]: > 100 µM; IC50 [23]: > 100 µM; IC50 [24]: > 100 µM; IC50 [5]: > 20 µM; IC50 [6]: > 20 µM; IC50 [7]: > 20 µM; IC50 [14]: > 20 µM
Nc1ccccc1NC(=O)c1ccc(CNC(=O)[C@H](Cc2c[nH]c3ccccc23)NC(=O)c2cnccn2)cc1	–	–	–	1020 nM	5850 nM	–
COc1ccc(C(=O)N[C@@H](Cc2c[nH]c3ccccc23)C(=O)Nc2ccc(C(=O)Nc3cc(-c4cccs4)ccc3N)cc2)cc1	314 nM	62500 nM	36.5 nM	–	–	–
Nc1ccccc1NC(=O)c1ccc(CNC(=O)[C@H](Cc2c[nH]c3ccccc23)NC(=O)c2cccs2)cc1	–	–	–	780 nM	1740 nM	–
O=C(CCCCCCC(=O)Nc1ccccc1)NO [VORINOSTAT]	–	–	–	–	–	Activity [20]: 21.23 g
COc1ccc(C(=O)N[C@H](CNCc2ccc(C(=O)Nc3ccccc3N)cc2)Cc2c[nH]c3ccccc23)cc1	21.2 nM	223 nM	29.9 nM	–	–	–
